Source: US20260130894A1, “COMPOSITION COMPRISING ISOQUINOLINE DERIVATIVE AS ACTIVE INGREDIENT FOR PREVENTION OR TREATMENT OF PARKINSON'S DISEASE” (ALTMEDICAL CO., LTD., priority 2022, published 2026)

How the values were obtained:
[1] = system: mitochondrial reactive oxygen species (ROS); test: Mitochondrial reactive oxygen species, MitoSOX assay; assay type: cell-based; details: CD1-012 10 μM or 15 μM, CCCP 10 μM, 24 hours (FIG. 6)
Experimental: (§1) It was confirmed whether the isoquinoline derivative according to the present invention induces mitochondrial dysfunction, similar to CCCP. To this end, the CD1-012 (10 μM or 15 μM) and CCCP (10 μM) were treated for 24 hours, and the mitochondrial membrane potential and mitochondrial reactive oxygen species (ROS) levels in each sample were analyzed. Mitochondrial membrane potential was analyzed using the TMRM (tetramethylrhodamine methyl ester) assay, and mitochondrial ROS levels were analyzed using the MitoSOX assay.

[2] = system: mitochondrial membrane potential; test: Mitochondrial membrane potential, TMRM assay; assay type: cell-based; details: CD1-012 10 μM or 15 μM, CCCP 10 μM, 24 hours (FIG. 6)
Experimental: as §1

[3] = system: BEAS-2B cell line, in which PINK1 was knocked down; test: Mitophagy activity in PINK1 knockdown (shPINK1) BEAS-2B cells (FACS); assay type: cell-based, human; details: CCCP 10 μM, CD1-012 15 μM, 18 hours (FIG. 7)
Source text: In this example, it was confirmed whether the mitophagy activation function of the isoquinoline derivative according to the present invention is dependent on the PINK1-Parkin pathway. […]
In the following example, it was confirmed whether the novel isoquinoline derivative according to the present invention has a therapeutic effect of preventing or improving Parkinson's disease. Most of all, it was confirmed whether the treatment with the isoquinoline derivative improves mitochondrial dysfunction of a Parkinson's disease cell model. To this end, first, the induction of mitophagy by CD1-012 was verified. […] In addition, to analyze whether the mitophagy-promoting activity of CD1-012 is dependent on PINK1, PINK1 expression was inhibited (using shPNIK1) in BEAS-2B cells, which is a human normal lung cell line expressing a mitochondrial fluorescent protein, and mitophagy activity was analyzed by flow cytometry (FACS).

BEAS-2B cell line = test: Mitophagy activity in BEAS-2B cells expressing mt-Keima (FACS, confocal microscope, mito-YFP); assay type: cell-based, human; details: BEAS-2B mt-Keima (FIG. 5)
Experimental: To analyze the mitophagy-promoting activity effect of the CD1-012 synthesized in the Example 1, the BEAS-2B cell line, which is a human normal lung cell line, was induced to express the mt-Keima fluorescent protein. Following this, the CD1-012 (15 μM) and the compound of Comparative Example 1, CCCP (10 μM), were treated for 24 hours. After the treatment, the mitophagy activity of each sample was measured, and the results were represented in FIGS. 1A to 1C.
Specifically, FIG. 1A represents the analysis results using flow cytometry (FACS) (treatment of CD1-012 at 15 μM for 24 hours), FIG. 1B represents the analysis results using a confocal microscope (treatment of CD1-012 at 15 μM for 18 hours), and FIG. 1C represents the measurement results of the quantitative changes in the mitochondria using a fluorescent protein, mito-YFP, which includes a targeting sequence to transport protein to the mitochondria (treatment of CD1-012 at 20 μM for 24 hours).
It was confirmed whether CD1-012 synthesized in Example 1 promotes mitophagy activity in a concentration- and time-dependent manner. To this end, the CD1-012 was treated at various concentrations or at a fixed concentration (15 μM) for different treatment durations in the BEAS-2B cell line expressing mt-Keima, and mitophagy activity was measured using a flow cytometer.
It was confirmed whether CD1-012 synthesized in Example 1 specifically increases only mitophagy activity. To this end, the BEAS-2B cell line expressing mt-Keima was treated with CD1-012 (15 μM) or Comparative Example 1 (CCCP, 10 μM) for 18 hours, and mitophagy activity was analyzed using a confocal microscope. Additionally, to measure autophagy activity, the BEAS-2B cell line expressing Keima fluorescent protein was incubated in Hanks' balanced salt solution (HBSS) for 3 hours to induce a starvation condition (starv.), and the results were compared with samples treated with CD1-012 (15 μM) for 18 hours using a confocal microscope.
To this end, the human normal lung cell line BEAS-2B, expressing mt-Keima fluorescent protein, was treated with CD1-012, Comparative Example 2 (palmatine), or Comparative Example 3 (berberine) at various concentrations, and the mitophagy-inducing activity of each sample was compared.

Compound	mitochondrial ROS levels [1]	mitochondrial membrane potential [2]	mitophagy activation in PINK1 knockdown cell line (shPINK1) compared to control cell line (shNT) [3]	concentration at which mitophagy activity reached its maximum (BEAS-2B cell line)
N#CC(C#N)=NNc1cccc(Cl)c1 [CCCP, Carbonyl cyanide 3-chlorophenylhydrazone, reference compound]	significantly increased	significantly reduced	significantly decreased	–
COc1ccc2cc3[n+](cc2c1OC)CCc1cc2c(cc1-3)OCO2 [berberine, Berberine, reference compound]	–	–	–	80 µM
COc1cc2c(cc1OC)-c1cc3ccc(OC)c(OC)c3c[n+]1CC2 [palmatine, Palmatine, reference compound]	–	–	–	400 µM
